≈ marks a conversion by molar mass, not a printed value.
Experiments:
[1] = tested on: Candida albicans; test: Antifungal activity against Candida albicans MSU-SM 543 after 2 to 4 days; type: functional
[2] = tested on: Aspergillus fumigatus; test: Antifungal activity against Aspergillus fumigatus MSU-SM 920 after 2 to 4 days; type: functional
[3] = tested on: Microsporum canis; test: Antifungal activity against Microsporum canis after 2 to 4 days; type: functional
[4] = tested on: Trichophyton rubrum; test: Antifungal activity against Trichophyton rubrum after 2 to 4 days; type: functional
[5] = Toxicity against human erythrocytes at 50 ppm after 60 mins by turbidimetry; type: cell-based; details: erythrocyte, 1 h
[6] = Toxicity against human erythrocytes at 20 ppm after 60 mins by turbidimetry; type: cell-based; details: erythrocyte, 1 h
[7] = Toxicity against human erythrocytes at 0.5 ppm after 60 mins by turbidimetry; type: cell-based; details: erythrocyte, 1 h
[8] = Toxicity against human erythrocytes at 0.05 ppm after 60 mins by turbidimetry; type: cell-based; details: erythrocyte, 1 h
[9] = Toxicity against rat WB-F344 cells assessed as cell viability at 50 ppm after 1 hr using trypan blue staining by LDH assay; type: cell-based; details: read-out: Activity
[10] = Toxicity against rat WB-F344 cells assessed as cell viability at 20 ppm after 1 hr using trypan blue staining by LDH assay; type: cell-based; details: read-out: Activity
[11] = Toxicity against rat WB-F344 cells assessed as cell viability at 0.5 ppm after 1 hr using trypan blue staining by LDH assay; type: cell-based; details: read-out: Activity
[12] = Toxicity against rat WB-F344 cells assessed as cell viability at 0.05 ppm after 1 hr using trypan blue staining by LDH assay; type: cell-based; details: read-out: Activity

Compound	MIC [1]	MIC [2]	MIC [3]	MIC [4]	Activity [5]	Activity [6]	Activity [7]	Activity [8]	viability at 1 h, 50 ppm [9]	viability at 1 h, 20 ppm [10]	viability at 1 h, 0.5 ppm [11]	viability at 1 h, 0.05 ppm [12]
Clc1ccccc1C(c1ccccc1)(c1ccccc1)n1ccnc1 [CLOTRIMAZOLE]	1 µg/mL (≈ 2.9 µM)	1 µg/mL (≈ 2.9 µM)	16 µg/mL (≈ 46.4 µM)	80 µg/mL (≈ 232 µM)								
C[C@@H]1C/C=C/C=C/C=C/C=C/[C@H](O[C@@H]2O[C@H](C)[C@@H](O)[C@H](N)[C@@H]2O)C[C@@H]2O[C@](O)(C[C@@H](O)C[C@H]3O[C@@H]3/C=C/C(=O)O1)C[C@H](O)[C@H]2C(=O)O [NATAMYCIN]	5.5 µg/mL (≈ 8.26 µM)	16 µg/mL (≈ 24 µM)	16 µg/mL (≈ 24 µM)	16 µg/mL (≈ 24 µM)								
NYSTATIN	3.2 µg/mL	100 µg/mL	100 µg/mL	100 µg/mL								
C[C@@H]1[C@H](O)[C@@H](C)/C=C/C=C/C=C/C=C/C=C/C=C/C=C/[C@H](O[C@@H]2O[C@H](C)[C@@H](O)[C@H](N)[C@@H]2O)C[C@@H]2O[C@](O)(C[C@@H](O)C[C@@H](O)[C@H](O)CC[C@@H](O)C[C@@H](O)CC(=O)O[C@H]1C)C[C@H](O)[C@H]2C(=O)O [AMPHOTERICIN B]	3.2 µg/mL (≈ 3.46 µM)	80 µg/mL (≈ 86.6 µM)	16 µg/mL (≈ 17.3 µM)	16 µg/mL (≈ 17.3 µM)	Toxic	Toxic	Non-toxic	Non-toxic	0%	0%	100%	100%
CC(=O)N1CCN(c2ccc(OCC3COC(Cn4ccnc4)(c4ccc(Cl)cc4Cl)O3)cc2)CC1 (configuration not stated) [KETOCONAZOLE]	0.5 µg/mL (≈ 0.941 µM)	1 µg/mL (≈ 1.88 µM)	5.5 µg/mL (≈ 10.3 µM)	5.5 µg/mL (≈ 10.3 µM)								
Clc1ccc(COC(Cn2ccnc2)c2ccc(Cl)cc2Cl)c(Cl)c1 (configuration not stated) [MICONAZOLE]	1 µg/mL (≈ 2.4 µM)	8 µg/mL (≈ 19.2 µM)	16 µg/mL (≈ 38.4 µM)	80 µg/mL (≈ 192 µM)								
